The numbers were not newly measured in patent US20020009704A1, “Oocyte vitrification technique” (priority 2000, published 2002), which cites them from elsewhere.

The series relates to bovine oocytes.

For the molecule `OCCO` [ethylene glycol], the “toxicity for bovine oocytes” value is given as “relatively low toxicity”.
